Test results taken from US9617256B2 (priority 2007, dated 2017).
≈ marks a conversion by molar mass, not a printed value.

Assays:
[1] = tested on: ASAU001 (laboratory strain of S. aureus, ATCC29213); assay: MIC broth microdilution, ASAU001; assay type: cell-based; conditions: Staphylococcus aureus, ATCC29213, read-out: MIC ASAU001
How it was run: (§1)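 Minimum inhibitory concentrations followed CLSI broth microdilution guidelines: cation-adjusted Mueller-Hinton broth, 2-fold serial drug dilutions, final inoculum 3×10^5–7×10^5 CFU/mL, ambient air at 35° C. for 18-24 hours. Quality-control strains and levofloxacin monitored performance.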

[2] = tested on: AECO063 (ATCC25922 bearing an acrAB mutation); assay: microbe, parasite or virus in culture; assay type: cell-based, E. coli; conditions: Escherichia coli, ATCC25922, read-out: MIC AECO063
How it was run: as §1

[3] = tested on: AECO001 HSA AGP; assay: MIC broth microdilution, AECO001 HSA AGP; assay type: cell-based, E. coli; conditions: Escherichia coli
How it was run: as §1

[4] = tested on: AABA1060 (clinical isolate of Acinetobacter baumannii); assay: MIC broth microdilution, AABA1060; assay type: cell-based; conditions: Acinetobacter baumannii, read-out: MIC AABA1060
How it was run: as §1

[5] = tested on: APAE006 (strain of P. aeruginosa in which all efflux pumps are inactivated); assay: microbe, parasite or virus in culture; assay type: cell-based; conditions: Pseudomonas aeruginosa, read-out: MIC APAE006, P. aeruginosa, all efflux pumps inactivated
How it was run: (§2)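 For the efflux-deficient P. aeruginosa APAE006, one set of MICs includes polymyxin B nonapeptide at 8 micrograms per milliliter.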

[6] = tested on: AECO001 (ATCC25922); assay: MIC broth microdilution, AECO001; assay type: cell-based, E. coli; conditions: Escherichia coli, ATCC25922, read-out: MIC AECO001
How it was run: as §1

[7] = tested on: APAE001 (ATCC27853); assay: MIC broth microdilution, APAE001; assay type: cell-based, P. aeruginosa; conditions: Pseudomonas aeruginosa, ATCC27853, read-out: MIC APAE001, APAE001 is ATCC27853
How it was run: as §1

[8] = tested on: APAE006 in the presence of 8 micrograms per milliliter of polymyxin B nonapeptide; assay type: cell-based, P. aeruginosa; conditions: in the presence of 8 micrograms per milliliter of polymyxin B nonapeptide
How it was run: as §2

Row | SMILES | MIC [1] [µg/mL] | MIC [2] [µg/mL] | MIC [3] [µg/mL] | MIC [4] [µg/mL] | MIC [5] [µg/mL] | MIC [6] [µg/mL] | MIC [7] [µg/mL] | MIC APAE006 + PMBN [8]
1 | C[C@@H](N)[C@H](NC(=O)c1ccc(C#Cc2ccc(CN3CCC(O)C3)cc2)cc1)C(=O)NO (stereo partly drawn) [Example 115-6] | > 64 | < 2 | 2 to 16 (≈ 4.58 to 36.7 µM) | 16 to 64 (≈ 36.7 to 147 µM) | < 2 | 2 to 16 (≈ 4.58 to 36.7 µM) | < 2 | A (MIC's of 2.0 μg/mL or less = A)
2 | C[C@H](N)[C@H](NC(=O)c1ccc(C#Cc2ccc(CN3CCOCC3)cc2)cc1)C(=O)NO [Example 133-2] | > 64 | < 2 | 16 to 64 (≈ 36.7 to 147 µM) | 16 to 64 (≈ 36.7 to 147 µM) | < 2 | < 2 | < 2 | A (MIC's of 2.0 μg/mL or less = A)
3 | C[C@@H](N)[C@H](NC(=O)c1ccc(C#CC#CC2CCCCC2)cc1)C(=O)NO [Example 91-4] | 2 to 16 (≈ 5.44 to 43.5 µM) | < 2 | 2 to 16 (≈ 5.44 to 43.5 µM) | 2 to 16 (≈ 5.44 to 43.5 µM) | < 2 | < 2 | 2 to 16 (≈ 5.44 to 43.5 µM) | A (MIC's of 2.0 μg/mL or less = A)
4 | O=C(NC(C(=O)NO)C(F)(F)F)c1ccc(/C=C/C#Cc2ccc(CN3CCOCC3)cc2)cc1 (stereo not drawn) [Example 110-12] | 16 to 64 (≈ 32.8 to 131 µM) | < 2 | < 2 | < 2 | < 2 | < 2 | 2 to 16 (≈ 4.1 to 32.8 µM) | A (MIC's of 2.0 μg/mL or less = A)
5 | NCC(=O)NCc1ccc(C#Cc2ccc(C(=O)N[C@@H](CN)C(=O)NO)cc2)cc1 [Example 116-1, (S)—N-(3-amino-1-(hydroxyamino)-1-oxopropan-2-yl)-4-((4-((2-aminoacetamido)methyl)phenyl)ethynyl)benzamide] | 16 to 64 (≈ 39.1 to 156 µM) | 16 to 64 (≈ 39.1 to 156 µM) | 16 to 64 (≈ 39.1 to 156 µM) | 16 to 64 (≈ 39.1 to 156 µM) | < 2 | 16 to 64 (≈ 39.1 to 156 µM) | 2 to 16 (≈ 4.88 to 39.1 µM) | A (MIC's of 2.0 μg/mL or less = A)
6 | C[C@@H](N)[C@H](NC(=O)c1ccc(CCc2ccc(CN3CCOCC3)cc2)cc1)C(=O)NO [Example 136-1, N-((2S,3R)-3-amino-1-(hydroxyamino)-1-oxobutan-2-yl)-4-(4-(morpholinomethyl)phenethyl)benzamide] | 16 to 64 (≈ 36.3 to 145 µM) | < 2 | 16 to 64 (≈ 36.3 to 145 µM) | 16 to 64 (≈ 36.3 to 145 µM) | < 2 | 2 to 16 (≈ 4.54 to 36.3 µM) | 2 to 16 (≈ 4.54 to 36.3 µM) | A (MIC's of 2.0 μg/mL or less = A)
7 | CN(C)CC(=O)NC[C@H](NC(=O)c1ccc(/C=C/C#Cc2ccc(CN3CCOCC3)cc2)cc1)C(=O)NO [Example 111-2] | 16 to 64 (≈ 30 to 120 µM) | < 2 | 2 to 16 (≈ 3.75 to 30 µM) | 2 to 16 (≈ 3.75 to 30 µM) | < 2 | 2 to 16 (≈ 3.75 to 30 µM) | 2 to 16 (≈ 3.75 to 30 µM) | A (MIC's of 2.0 μg/mL or less = A)
8 | CO[C@H](C)[C@H](NC(=O)c1ccc(C#C/C=C/c2ccc(CN3CCOCC3)cc2)cc1)C(=O)NO [Example 97-1, N-((1S,2R)-1-Hydroxycarbamoyl-2-methoxy-propyl)-4-[(E)-4-(4-morpholin-4-ylmethyl-phenyl)-but-3-en-1-ynyl]-benzamide] | 16 to 64 (≈ 33.5 to 134 µM) | < 2 | < 2 | 2 to 16 (≈ 4.19 to 33.5 µM) | < 2 | < 2 | 2 to 16 (≈ 4.19 to 33.5 µM) | A (MIC's of 2.0 μg/mL or less = A)
9 | O=C(N[C@H](C(=O)NO)c1cccs1)c1ccc(C#Cc2ccc(CN3CCOCC3)cc2)cc1 [Example 67-7] | > 64 | < 2 | 2 to 16 (≈ 4.21 to 33.6 µM) | 2 to 16 (≈ 4.21 to 33.6 µM) | < 2 | < 2 | 2 to 16 (≈ 4.21 to 33.6 µM) | A (MIC's of 2.0 μg/mL or less = A)
10 | C[C@H](NCC(=O)NC[C@H](NC(=O)c1ccc(C#Cc2ccccc2)cc1)C(=O)NO)c1ccccc1 [Example 132-4] | 16 to 64 (≈ 33 to 132 µM) | < 2 | 2 to 16 (≈ 4.13 to 33 µM) | 2 to 16 (≈ 4.13 to 33 µM) | < 2 | < 2 | 2 to 16 (≈ 4.13 to 33 µM) | A (MIC's of 2.0 μg/mL or less = A)
11 | CC(C)C(C(=O)NO)C(=O)Nc1ccc(C#Cc2ccc(CN3CCOCC3)cc2)cc1 (stereo not drawn) [Example 60-5, N-Hydroxy-2-isopropyl-N′-[4-(4-morpholin-4-ylmethyl-phenylethynyl)-phenyl]-malonamide] | > 64 | 16 to 64 (≈ 36.7 to 147 µM) | > 64 | > 64 | 16 to 64 (≈ 36.7 to 147 µM) | 16 to 64 (≈ 36.7 to 147 µM) | > 64 | B (MIC's of greater than 2.0 μg/mL to 16.0 μg/mL = B)
12 | NC[C@H](NC(=O)c1ccc(/C=C/C#Cc2ccc(CO)cc2)cc1)C(=O)NO [Example 112-2] | > 64 | < 2 | 16 to 64 (≈ 42.2 to 169 µM) | > 64 | < 2 | 2 to 16 (≈ 5.27 to 42.2 µM) | 2 to 16 (≈ 5.27 to 42.2 µM) | A (MIC's of 2.0 μg/mL or less = A)
13 | CC(C)(O)[C@H](NC(=O)c1ccc(/C=C/C#Cc2ccc(CN3CCOCC3)cc2)cc1)C(=O)NO [Example 110-7] | > 64 | < 2 | 2 to 16 (≈ 4.19 to 33.5 µM) | < 2 | < 2 | < 2 | 2 to 16 (≈ 4.19 to 33.5 µM) | A (MIC's of 2.0 μg/mL or less = A)
14 | CC(=O)NC[C@H](NC(=O)c1ccc(C#C/C=C/c2ccc(CN3CCOCC3)cc2)cc1)C(=O)NO [Example 98-3, N—((S)-2-acetylamino-1-hydroxycarbamoyl-ethyl)-4-[(E)-4-(4-morpholin-4-ylmethyl-phenyl)-but-3-en-1-ynyl]-benzamide] | > 64 | < 2 | < 2 | 16 to 64 (≈ 32.6 to 130 µM) | < 2 | < 2 | 2 to 16 (≈ 4.08 to 32.6 µM) | A (MIC's of 2.0 μg/mL or less = A)
15 | C[C@@H](N)[C@H](NC(=O)c1ccc(C#Cc2ccc(CNC(=N)N)cc2)cc1)C(=O)NO [Example 131-3, N-((1S,2R)-2-Amino-1-hydroxycarbamoyl-propyl)-4-(4-guanidinomethyl-phenylethynyl)-benzamide] | 16 to 64 (≈ 39.2 to 157 µM) | 16 to 64 (≈ 39.2 to 157 µM) | 16 to 64 (≈ 39.2 to 157 µM) | 16 to 64 (≈ 39.2 to 157 µM) | < 2 | 16 to 64 (≈ 39.2 to 157 µM) | 2 to 16 (≈ 4.9 to 39.2 µM) | A (MIC's of 2.0 μg/mL or less = A)
16 | O=C(N[C@H](C(=O)NO)C1CCNCC1)c1ccc(C#Cc2ccc(CN3CCOCC3)cc2)cc1 [Example 65-6, N—((S)-hydroxycarbamoyl-piperidin-4-yl-methyl)-4-(4-morpholin-4-ylmethyl-phenylethynyl)-benzamide] | > 64 | 2 to 16 (≈ 4.2 to 33.6 µM) | > 64 | 16 to 64 (≈ 33.6 to 134 µM) | 2 to 16 (≈ 4.2 to 33.6 µM) | 16 to 64 (≈ 33.6 to 134 µM) | 16 to 64 (≈ 33.6 to 134 µM) | A (MIC's of 2.0 μg/mL or less = A)
17 | CC(C)(O)[C@H](NC(=O)c1ccc(C#CC#Cc2ccccc2)cc1)C(=O)NO [Example 82-13] | 16 to 64 (≈ 42.5 to 170 µM) | < 2 | < 2 | < 2 | < 2 | < 2 | < 2 | A (MIC's of 2.0 μg/mL or less = A)
18 | CC(C)(O)[C@H](NC(=O)c1ccc(C#C/C=C/c2ccc(CN3CCOCC3)cc2)cc1)C(=O)NO [Compound 97-2] | 16 to 64 (≈ 33.5 to 134 µM) | < 2 | < 2 | < 2 | < 2 | < 2 | < 2 | A (MIC's of 2.0 μg/mL or less = A)
